The values below come from publication PMC12444472, “BCI inhibits MKP3 by targeting the kinase-binding domain and disrupting ERK2 interaction” (The Journal of Biological Chemistry, 2025).

Values joined by “and” are separate entries in the source; they are usually repeats but may differ in a detail not shown here. Equal values may be shown once.

One test has as its target T1, MKP1^KBD (Homo sapiens, UniProt P28562).
T1 construct: MKP1(1–141) (MKP1^KBD); made in house; host or cells: Escherichia coli BL21(DE3)
T1 sequence (P28562 1-141): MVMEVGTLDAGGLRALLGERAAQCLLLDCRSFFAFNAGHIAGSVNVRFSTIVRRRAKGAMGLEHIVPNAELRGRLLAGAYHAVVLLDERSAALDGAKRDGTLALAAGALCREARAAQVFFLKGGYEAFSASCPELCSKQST
The experiment in a line: MST affinity measurement. Conditions: one-site binding model, mean ± SD of three experiments. The procedure: (§1) MST measurements were performed using fluorescently labeled proteins and the inhibitor BCI (CAS: 1245792-51-1; TargetMol) on a Monolith instrument (NanoTemper Technologies). The RED–Tris–NTA second-generation dye was dissolved in MST buffer (20 mM Hepes, pH 7.4, 200 mM NaCl, and 0.05% Tween-20) to prepare a 5 μM stock solution. Fluorescent labeling of MKP proteins followed the standard protocol of the MO-L018 RED–Tris–NTA protein labeling kit, leveraging the His-tag–dye interaction.
(§2) The BCI compound was prepared as a 600 to 750 μM stock solution in MST buffer with 10% DMSO to enhance solubility, followed by a 16-point serial dilution. The diluted BCI solutions were thoroughly mixed with labeled MKP proteins (50 nM) at a 1:1 volume ratio, yielding a final volume of 10 μl. The reaction mixtures were incubated in the dark for 10 min at room temperature before being loaded into standard glass capillaries. Measurements were carried out on the Monolith instrument (100% LED, 40% IR laser power) with a 20 s laser on time. The normalized fluorescence values from triplicate measurements were averaged at each concentration and fitted to a 1:1 binding model using the KD model in MO.Affinity software (v3.0.5, NanoTemper Technologies) to determine the binding affinities between MKP proteins and the BCI inhibitor. The final reported Kd value represents the mean ± SD of Kd values obtained from three independent experiments, each fitted separately.

The next test has as its target T2, MKP2^KBD (Homo sapiens, UniProt Q13115).
T2 construct: MKP2(5–159) (MKP2^KBD); made in house; host or cells: Escherichia coli BL21(DE3)
T2 sequence (Q13115 5-159): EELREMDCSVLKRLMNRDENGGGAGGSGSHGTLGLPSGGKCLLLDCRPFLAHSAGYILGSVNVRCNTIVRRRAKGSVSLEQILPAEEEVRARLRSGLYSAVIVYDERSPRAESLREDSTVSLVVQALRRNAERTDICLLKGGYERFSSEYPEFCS
The experiment in a line: MST affinity measurement. Conditions: one-site binding model, mean ± SD of three experiments. The procedure: as §1, §2

In test [1] the target is T3, MKP3^FL (Homo sapiens, UniProt Q16828).
T3 construct: MKP3(1–381) (MKP3^FL); made in house; host or cells: Escherichia coli BL21(DE3)
T3 sequence (Q16828 1-381): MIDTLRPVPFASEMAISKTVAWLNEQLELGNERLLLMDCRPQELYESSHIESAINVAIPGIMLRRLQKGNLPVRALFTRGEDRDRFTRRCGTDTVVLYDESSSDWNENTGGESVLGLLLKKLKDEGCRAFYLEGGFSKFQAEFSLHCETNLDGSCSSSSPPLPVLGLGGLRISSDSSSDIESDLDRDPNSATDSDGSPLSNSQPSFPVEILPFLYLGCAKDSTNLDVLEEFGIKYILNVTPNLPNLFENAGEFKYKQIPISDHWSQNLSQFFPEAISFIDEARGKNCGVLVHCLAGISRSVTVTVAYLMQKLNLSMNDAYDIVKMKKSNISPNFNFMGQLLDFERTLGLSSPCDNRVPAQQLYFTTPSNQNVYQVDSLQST
The experiment in a line: MST affinity measurement. The conditions noted are these: one-site binding model, mean ± SD of three experiments. How it is done: as §1, §2

The next test deals with T4, MKP3^KBD (Homo sapiens, UniProt Q16828).
T4 construct: MKP3(1–154) (MKP3^KBD); made in house; host or cells: Escherichia coli BL21(DE3)
T4 sequence (Q16828 1-154): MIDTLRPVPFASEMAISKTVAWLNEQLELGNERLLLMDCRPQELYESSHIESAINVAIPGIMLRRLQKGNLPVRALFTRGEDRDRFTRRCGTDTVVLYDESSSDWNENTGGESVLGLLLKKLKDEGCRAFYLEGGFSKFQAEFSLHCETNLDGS
The experiment in a line: MST affinity measurement. Conditions: one-site binding model, mean ± SD of three experiments. How it is done:
as §1, §2

The next test addresses T5, MKP5^KBD (Homo sapiens, UniProt Q9Y6W6).
T5 construct: MKP5(139–287) (MKP5^KBD); made in house; host or cells: Escherichia coli BL21(DE3)
T5 sequence (Q9Y6W6 139-287): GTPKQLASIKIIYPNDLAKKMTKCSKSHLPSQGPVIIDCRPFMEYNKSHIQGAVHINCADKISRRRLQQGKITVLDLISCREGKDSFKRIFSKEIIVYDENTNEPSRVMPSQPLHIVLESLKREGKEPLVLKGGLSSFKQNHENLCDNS
The experiment in a line: MST affinity measurement. The conditions noted are these: one-site binding model, mean ± SD of three experiments. The procedure:
as §1, §2

The target of a further test is T6, MKPX^KBD (Homo sapiens, UniProt Q16829).
T6 construct: MKPX(1–140) (MKPX^KBD); made in house; host or cells: Escherichia coli BL21(DE3)
T6 sequence (Q16829 1-140 isoform Q16829-2): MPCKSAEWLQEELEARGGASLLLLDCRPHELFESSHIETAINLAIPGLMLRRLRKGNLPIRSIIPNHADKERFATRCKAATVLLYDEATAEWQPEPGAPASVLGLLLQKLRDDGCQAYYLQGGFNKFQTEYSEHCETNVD
The experiment in a line: MST affinity measurement. Conditions: one-site binding model, mean ± SD of three experiments. The procedure:
as §1, §2

The target in test [2] is T3, MKP3^FL. The experiment in a line: Phosphatase activity toward pNPP in the presence of ERK2. It counts as biochemical. How it is done: The phosphatase activity of MKP3 toward pNPP was measured using continuous spectrophotometric assays, either in the absence or the presence of ERK2 at a 1:1 M ratio with MKP3. Experiments were conducted at 25 °C in a reaction mixture with a total volume of 1.8 ml, containing 50 mM Mops (pH 7.0), 100 mM NaCl, and 0.1 mM EDTA. MKP3 (1 μM) was preincubated with varying concentrations of the inhibitor BCI for 5 min before initiating the reaction by adding pNPP at concentrations ranging from 0 to 14 mM. Continuous absorbance changes were recorded using a PerkinElmer LAMBDA 45 spectrophotometer equipped with a magnetic stirrer in the cuvette holder. The production of p-nitrophenol was monitored at 410 nm using an extinction coefficient of 18,000 M^-1 cm^-1.
Stock solutions of BCI (dissolved in DMSO) at different concentrations were prepared to maintain a constant DMSO concentration across all BCI concentrations in the phosphatase inhibition assays, thereby eliminating potential effects of varying DMSO levels on detection. Initial reaction rates were determined from the linear slope of progress curves, and the data were analyzed using nonlinear regression. Kinetic parameters (kcat and Km) were obtained by fitting the data to the Michaelis–Menten equation: v0 = kcat[E][S]/(Km + [S]). […]

The term Kd denotes a measure of binding affinity in units of concentration. Consider `O=C1/C(=C/c2ccccc2)C(NC2CCCCC2)c2ccccc21` (centres unmarked) [BCI, (E)-2-benzylidene-3-(cyclohexylamino)-2,3-dihydro-1H-inden-1-one], for which the Kd at MKP1^KBD was ~73.1 µM and 73.1 µM; at MKP2^KBD it was ~49 µM and 49 µM; on MKP3^FL [1], 9.2 ± 1.8 µM; on MKP3^KBD it was 15 µM and ~15 µM; at MKP5^KBD, ~8.5 µM and 8.5 µM; on MKPX^KBD, ~14.1 µM and 14.1 µM. The “ERK2-induced MKP3 activity relative to its initial level” value on MKP3^FL [2] (BCI at molar concentration 20 times that of ERK2) is recorded as “one-seventh”. The “effect on MKP3's Michaelis constant (Km) for pNPP” value at MKP3^FL [2] (ERK2 at 1:1 with MKP3^FL) was “did not significantly alter”.
